Paper PMC6325233, “A Novel Actin Binding Drug with In Vivo Efficacy” (Antimicrobial Agents and Chemotherapy, 2018)
“Also recorded” adds a separate entry of the source.

What was measured:
S. cerevisiae Δrdi1 = assay: MIC against deletion mutant; assay type: cell-based; conditions: Rho GDP-inhibitor
Protocol: (§1) Occidiofungin was purified from a liquid culture of Burkholderia contaminans MS14 as previously described ([21]). MIC susceptibility testing was performed according to the CLSI M27-A3 and M38-A2 standards for the susceptibility testing of yeasts and filamentous fungi, respectively. S. cerevisiae deletion mutants were obtained from the commercially available BY4741 deletion library (Thermo Scientific).

S. cerevisiae Δrom1 = assay: MIC against deletion mutant; assay type: cell-based; conditions: Rho1-GEF
Protocol: as §1

S. cerevisiae Δtpm1 = assay: MIC against deletion mutant; assay type: cell-based
Protocol: as §1

S. cerevisiae Δsac7 = assay: MIC against deletion mutant; assay type: cell-based; conditions: Rho1-GAP
Protocol: as §1

S. cerevisiae Δmyo5 = assay: MIC against deletion mutant; assay type: cell-based; conditions: Actin based motor activity, Type I motor
Protocol: as §1

S. cerevisiae Δbni1 = assay: MIC against deletion mutant; assay type: cell-based; conditions: Actin nucleation, Formin
Protocol: as §1

S. cerevisiae Δcap2 = assay: MIC against deletion mutant; assay type: cell-based; conditions: Barbed-end actin capping protein
Protocol: as §1

S. cerevisiae Δarc18 = assay: MIC against deletion mutant; assay type: cell-based; conditions: ARP2/3 subunit
Protocol: as §1

S. cerevisiae Δbnr1 = assay: MIC against deletion mutant; assay type: cell-based; conditions: Actin nucleation, Formin
Protocol: as §1

S. cerevisiae Δsac6 = assay: MIC against deletion mutant; assay type: cell-based; conditions: Actin bundling, Fimbrin
Protocol: as §1

S. cerevisiae Δabp1 = assay: MIC against deletion mutant; assay type: cell-based; conditions: ARP2/3 activator
Protocol: as §1

S. cerevisiae Δscp1 = assay: MIC against deletion mutant; assay type: cell-based; conditions: Actin cross linker
Protocol: as §1

S. cerevisiae Δmyo4 = assay: MIC against deletion mutant; assay type: cell-based; conditions: Actin based motor activity, Type V motor
Protocol: as §1

S. cerevisiae Δrgl1 = assay: MIC against deletion mutant; assay type: cell-based; conditions: Tus1p cofactor
Protocol: as §1

S. cerevisiae Δbem2 = assay: MIC against deletion mutant; assay type: cell-based; conditions: Rho-GAP for the CWI pathway
Protocol: as §1

S. cerevisiae Δrom2 = assay: MIC against deletion mutant; assay type: cell-based; conditions: Rho1/2-GEF
Protocol: as §1

S. cerevisiae Δtpm2 = assay: MIC against deletion mutant; assay type: cell-based; conditions: Actin filament binding, Tropomyosin
Protocol: as §1

S. cerevisiae Δtus1 = assay: MIC against deletion mutant; assay type: cell-based; conditions: Rho1p GEF
Protocol: as §1

[1] = tested on: Schizosaccharomyces pombe; assay: Intracellular localization and competition, fluorescence microscopy; assay type: cell-based; conditions: pretreatment with 1× MIC native occidiofungin
Protocol: S. pombe and S. cerevisiae cells (OD600 of 0.6 to 0.8) were incubated with 1× MIC of alkyne-OF at 30°C, with samples removed at 10, 30, and 60 min postincubation. The cells were washed in PBS and fixed with 3.7% formaldehyde. The cells were permeabilized by adding 0.5% Triton X-100. The cells were washed with PBS before the Click reaction with azide-derivatized Alexa Fluor 488 (Click-iT EdU imaging kit; Thermo Fisher Scientific). The cells were visualized with an Olympus FV1000 confocal microscope. A competition assay was carried out by pretreating cells with 1× MIC of the native occidiofungin followed by treatment with alkyne-OF. […] A 6.6 µM concentration of tetramethyl rhodamine isothiocyanate (TRITC)-tagged phalloidin was added to formaldehyde-fixed cells (permeabilized with 0.2% Triton X-100) for 30 min at room temperature. The cells were washed in PBS, added to a concanavalin A-treated glass slides, and overlaid with Vectashield plus DAPI. Images were viewed using a Nikon 50i fluorescence microscope with a 100× oil immersion objective and Texas Red and DAPI filter sets. Random images were captured using a Retiga EXi black and white charge-coupled-device (CCD) camera and Image Q software. All images were captured using the same exposure settings, with the image contrast altered postcapture using CorelDraw.

cancer cell lines = conditions: several cancer cell lines vs human fibroblast control; cited from earlier work
Protocol: Natural products with in vitro antifungal properties that target the actin cytoskeleton were previously reported ([51]). […] Occidiofungin, on the other hand, is well tolerated at 5 mg/kg or 20 mg/kg when administered intravenously or subcutaneously, respectively ([22], [25]). This dose is much higher than the MIC of occidiofungin against several fungal pathogens. ...

C. albicans = assay: Murine model of vulvovaginal candidiasis, efficacy; assay type: in vivo, BALB/c mice infected with C. albicans
Protocol: The murine model of vulvovaginal candidiasis has been reported ([59]). A variation of this method was used. Three groups of six mice were used to evaluate two concentrations of occidiofungin (100 μg and 50 μg) and vehicle control (0.3% Noble agar). Briefly, 6- to 8-week-old BALB/c mice were treated subcutaneously with 200 ng per mouse of β-estradiol 17-valerate 3 days prior to inoculation with C. albicans (day −3). A subcutaneous dose of estradiol was administered every 3 days (day 0 [D0] and D3) until the end of the experiment to induce pseudoestrus. Intravaginal inoculations of approximately 20 μl of 2.5 × 10^6 CFU/ml of C. albicans were performed on D0 of the VVC study. On the same day of inoculation (D0), another subcutaneous injection of estradiol was made. A lyophilized powder of occidiofungin containing either 100 μg or 50 μg of occidiofungin was suspended in 20 μl of warm 0.3% Noble agar before the intravaginal inoculations. Drug treatments were performed on D2, D3, and D4 of the study. On day 5 (D5), the vaginal lumen was lavaged with 100 μl of sterile PBS with a 200-µl pipette tip. Serial dilutions and total CFU per vaginal lavage were determined by plating on YPD plates containing 50 μg/ml of chloramphenicol. Body weights, signs of vaginal irritation such as swelling or bleeding, and clinical signs of discomfort (stereotypical stretching behavior) were monitored. Statistical analyses (t tests) were performed to compare the control group to the treated groups and to compare differences between treated groups. All the analyses were 2 sided, with a P value of <0.05 considered statistically significant.

occidiofungin
MIC (S. cerevisiae Δrdi1): 0.25 µg/mL
MIC (S. cerevisiae Δrom1): 0.25 µg/mL
MIC (S. cerevisiae Δtpm1; Actin filament binding, Tropomyosin): 1.0 µg/mL
resistance to occidiofungin of Δtpm1 mutant (S. cerevisiae Δtpm1; vs parent, MIC): 4 -fold
MIC (S. cerevisiae Δsac7): 0.25 µg/mL
MIC (S. cerevisiae Δmyo5): 0.25 µg/mL
MIC (S. cerevisiae Δbni1): 0.25 µg/mL
MIC (S. cerevisiae Δcap2): 0.25 µg/mL
MIC (S. cerevisiae Δarc18): 0.25 µg/mL
MIC (S. cerevisiae Δbnr1): 0.25 µg/mL
MIC (S. cerevisiae Δsac6): 0.25 µg/mL
MIC (S. cerevisiae Δabp1): 0.25 µg/mL
MIC (S. cerevisiae Δscp1): 0.25 µg/mL
MIC (S. cerevisiae Δmyo4): 0.25 µg/mL
MIC (S. cerevisiae Δrgl1): 0.25 µg/mL
MIC (S. cerevisiae Δbem2): 0.25 µg/mL
MIC (S. cerevisiae Δrom2): 0.25 µg/mL
MIC (S. cerevisiae Δtpm2): 0.25 µg/mL
MIC (S. cerevisiae Δtus1): 0.25 µg/mL
competition with alkyne-OF localization [1]: the observed cellular localization patterns disappeared; also recorded: does not bind
sensitivity of several cancer cell lines vs human fibroblast cell line (cancer cell lines): approximately 10 -fold
difference between the two treated groups (C. albicans; 100 vs 50 µg, P = 0.33): no statistically significant difference between the two treated groups
reduction in fungal load (C. albicans; intravaginal 100 and 50 µg in 0.3% Noble agar, once per day for 3 days, six mice per group, vs vehicle P < 0.001): 2 -log
efficacious concentration lower than azole-based treatment (C. albicans; vs azole-based treatment methods): 10 -fold
